Measured values as given in US20110123651A1, “DIETARY SUPPLEMENT DRINK FOR DELIVERY OF RESVERATROL AND OTHER POLYPHENOLS” (priority 2009, published 2011).

Assay: Buccal delivery of resveratrol in humans: free resveratrol in plasma
Assay type: in vivo
Conditions: human, 1 mg resveratrol in 50 mL solution retained in the mouth for one minute before swallowing, plasma two minutes later, read-out: free resveratrol measured in plasma
Procedure: One efficient way of administering resveratrol in humans may be buccal delivery, that is without immediate swallowing, by direct absorption through the inside of the mouth. As an example, when one mg of resveratrol in 50 mL solution was retained in the mouth for one minute before swallowing, 37 ng/ml of free resveratrol was measured in plasma two minutes later. This level of unchanged resveratrol in blood can only be achieved with 250 mg of resveratrol taken in pill form.

Oc1ccc(C=Cc2cc(O)cc(O)c2)cc1 [resveratrol]
concentration at 2 min: 37 ng/mL
